In general, inhibition refers to the percentage by which the read-out fell short of the control.

This note sets out measurements from PMC11129182, “Development of Inhibitors, Probes, and PROTAC Provides a Complete Toolbox to Study PARK7 in the Living Cell” (Journal of Medicinal Chemistry, 2024).

The experiment concerns the target T1, PARK7 (Homo sapiens, UniProt Q99497).
T1 sequence (Q99497 1-189): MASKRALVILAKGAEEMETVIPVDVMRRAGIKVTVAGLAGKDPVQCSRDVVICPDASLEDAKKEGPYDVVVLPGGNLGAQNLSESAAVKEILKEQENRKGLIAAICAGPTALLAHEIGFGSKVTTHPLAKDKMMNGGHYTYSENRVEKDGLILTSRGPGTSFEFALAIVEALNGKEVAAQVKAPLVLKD
The experiment in a line: High-throughput screen of the crude compound library, PARK7 fluorescence polarization (FP) assay with FP reagent JYQ-107. Type of experiment: biochemical. As to conditions: 1.25 µM, crude compound library; read-out: HTS FP assay %Inhibition (1.25 µM). (In general: Fluorescence polarisation rises when a labelled molecule tumbles more slowly, as on binding a larger partner.)

With `N#CN1CC[C@@H](C(=O)Nc2nc3c(s2)CN(C(=O)C2Cc4ccccc42)CC3)C1` (some centres unmarked) [compound 179], the inhibition at 1.25 µM came to 81%.
On to `N#CN1CC[C@@H](C(=O)Nc2nc3c(s2)CN(C(=O)c2ccnc(N4CCOCC4)n2)CC3)C1` [compound 180], for which the inhibition at 1.25 µM is 87.3%.
The result for `N#CN1CC[C@@H](C(=O)Nc2nc3c(s2)CN(C(=O)C2COCCN2C(=O)OCc2ccccc2)CC3)C1` (some centres unmarked) [compound 181] reads 72.7%.
For `N#CN1CC[C@@H](C(=O)Nc2nc3c(s2)CN(C(=O)c2cncc(N4CCCC4)n2)CC3)C1` [compound 182] the value was 81.9%; for `CN(Cc1ccccc1)S(=O)(=O)c1ccc(C(=O)N2CCc3nc(NC(=O)[C@@H]4CCN(C#N)C4)sc3C2)cc1` [compound 183], 65.5%.
The result for `Cn1nc(-c2cccnc2)cc1C(=O)N1CCc2nc(NC(=O)[C@@H]3CCN(C#N)C3)sc2C1` [compound 184] reads 86.9%.
Take `N#CN1CC[C@@H](C(=O)Nc2nc3c(s2)CN(C(=O)c2cnoc2-c2ccccc2C(F)(F)F)CC3)C1` [compound 185]: the inhibition at 1.25 µM came out at 77.5%.
The result for `N#CN1CC[C@@H](C(=O)Nc2nc3c(s2)CN(C(=O)c2cn(CC4CCCO4)nn2)CC3)C1` (some centres unmarked) [compound 186] reads 83.8%; that for `Cn1cc(-c2cc[nH]n2)c(C(=O)N2CCc3nc(NC(=O)[C@@H]4CCN(C#N)C4)sc3C2)n1` [compound 187], 59.2%; that for `CN1CCN(C(=O)[C@@H]2[C@@H](C(=O)N3CCc4nc(NC(=O)[C@@H]5CCN(C#N)C5)sc4C3)C2(C)C)CC1` [compound 189], 66.8%.
The result for `Cc1csc(N2CCC(C(=O)N3CCc4nc(NC(=O)[C@@H]5CCN(C#N)C5)sc4C3)CC2)n1` [compound 190] reads 51.8%.
The result for `N#CN1CC[C@@H](C(=O)Nc2nc3c(s2)CN(C(=O)c2cc(Cn4cc(Cl)cn4)cs2)CC3)C1` [compound 191] reads 86.7%; that for `Cc1nc(COc2ccc(C(=O)N3CCc4nc(NC(=O)[C@@H]5CCN(C#N)C5)sc4C3)cc2)no1` [compound 192], 84.8%; that for `CN(Cc1ccnn1C)C(=O)C1CCCCC1C(=O)N1CCc2nc(NC(=O)[C@@H]3CCN(C#N)C3)sc2C1` (some centres unmarked) [compound 193], 73%.
On to `COc1ccc(C(=O)N2CCc3nc(NC(=O)[C@@H]4CCN(C#N)C4)sc3C2)cc1S(=O)(=O)NCc1ccccn1` [compound 194], for which the inhibition at 1.25 µM came to 80.2%.
For `N#CN1CC[C@@H](C(=O)Nc2nc3c(s2)CN(C(=O)c2ccc(CN4CCCCCC4)s2)CC3)C1` [compound 195] the value was 72.4%; for `Cc1nc(-c2cc(C)n(CCC(=O)N3CCc4nc(NC(=O)[C@@H]5CCN(C#N)C5)sc4C3)c2C)cs1` [compound 196], 61.7%.
The result for `Cc1noc(C)c1S(=O)(=O)N1CCC(C(=O)N2CCc3nc(NC(=O)[C@@H]4CCN(C#N)C4)sc3C2)CC1` [compound 198] reads 65.2%; that for `N#CN1CC[C@@H](C(=O)Nc2nc3c(s2)CN(C(=O)c2ccc(-c4cccs4)[nH]c2=O)CC3)C1` [compound 200], 72.4%.
On to `N#CN1CC[C@@H](C(=O)Nc2nc3c(s2)CN(C(=O)c2cc(N4CCOCC4)ccn2)CC3)C1` [compound 201], for which the inhibition at 1.25 µM came out at 72.2%.
For `N#CN1CC[C@@H](C(=O)Nc2nc3c(s2)CN(C(=O)Cc2csc(-c4nnc[nH]4)n2)CC3)C1` [compound 202] the value was 81%; for `N#CN1CC[C@@H](C(=O)Nc2nc3c(s2)CN(C(=O)c2ccc(-n4cccn4)cc2)CC3)C1` [compound 203], 70.1%; for `Cc1ccccc1COc1cccc(CC(=O)N2CCc3nc(NC(=O)[C@@H]4CCN(C#N)C4)sc3C2)c1` [compound 204], 73.6%.
The result for `N#CN1CC[C@@H](C(=O)Nc2nc3c(s2)CN(C(=O)c2ccc(S(=O)(=O)Nc4cccc(Cl)c4F)o2)CC3)C1` [compound 205] reads 72.5%; that for `N#CN1CC[C@@H](C(=O)Nc2nc3c(s2)CN(C(=O)C2CCCN2C(=O)c2ccncc2)CC3)C1` (some centres unmarked) [compound 206], 50.6%.
Take `Cc1ccc(S(=O)(=O)N[C@@H](Cc2ccccc2)C(=O)N2CCc3nc(NC(=O)[C@@H]4CCN(C#N)C4)sc3C2)cc1` [compound 207]: the inhibition at 1.25 µM stood at 70%.
For `N#CN1CC[C@@H](C(=O)Nc2nc3c(s2)CN(C(=O)c2csc(-c4ccc(Br)s4)n2)CC3)C1` [compound 208] the value was 86.4%; for `N#CN1CC[C@@H](C(=O)Nc2nc3c(s2)CN(C(=O)c2cc(C4CC4)n[nH]2)CC3)C1` [compound 209], 86.7%.
For `N#CN1CC[C@@H](C(=O)Nc2nc3c(s2)CN(C(=O)c2cc(-c4ccncc4)on2)CC3)C1` [compound 210] the value was 63.9%; for `N#CN1CC[C@@H](C(=O)Nc2nc3c(s2)CN(C(=O)c2ccc(N4CCCC4)c(F)c2)CC3)C1` [compound 211], 86.4%; for `N#CN1CC[C@@H](C(=O)Nc2nc3c(s2)CN(C(=O)Cc2ccc(OCCOc4ccccc4)cc2)CC3)C1` [compound 212], 85.1%.
For `Cc1cc(C(=O)N2CCc3nc(NC(=O)[C@@H]4CCN(C#N)C4)sc3C2)c(C)n1-c1cccnc1` [compound 213] the value was 67.7%.
As for `N#CN1CC[C@@H](C(=O)Nc2nc3c(s2)CN(C(=O)c2csc(-c4ccncc4)n2)CC3)C1` [compound 214], the inhibition at 1.25 µM is 59.5%.
For `N#CN1CC[C@@H](C(=O)Nc2nc3c(s2)CN(C(=O)C2CN(C(=O)OCc4ccccc4)CCO2)CC3)C1` (some centres unmarked) [compound 216] the value was 76.7%; for `N#CN1CC[C@@H](C(=O)Nc2nc3c(s2)CN(C(=O)c2cccn2-c2c(Cl)cccc2Cl)CC3)C1` [compound 218], 69.2%; for `Cn1cc(-c2ccc(C(=O)N3CCc4nc(NC(=O)[C@@H]5CCN(C#N)C5)sc4C3)o2)cn1` [compound 220], 27.6%.
For `N#CN1CC[C@@H](C(=O)Nc2nc3c(s2)CN(C(=O)c2ccc(F)c(S(=O)(=O)N4CCC4)c2)CC3)C1` [compound 221] the value was 94.8%.
Regarding `CN1C(=O)C[C@@H](C(=O)N2CCc3nc(NC(=O)[C@@H]4CCN(C#N)C4)sc3C2)[C@@H]1c1cccnc1` [compound 222], the inhibition at 1.25 µM came to 63.8%.
The result for `Cc1nc(COc2ccccc2C(=O)N2CCc3nc(NC(=O)[C@@H]4CCN(C#N)C4)sc3C2)no1` [compound 223] reads 74%; that for `Cc1onc(-c2ccncc2)c1C(=O)N1CCc2nc(NC(=O)[C@@H]3CCN(C#N)C3)sc2C1` [compound 224], 73.5%; that for `N#CN1CC[C@@H](C(=O)Nc2nc3c(s2)CN(C(=O)c2cccc(OCCOc4ccccc4Cl)n2)CC3)C1` [compound 225], 86.9%.
Regarding `N#CN1CC[C@@H](C(=O)Nc2nc3c(s2)CN(C(=O)CC2(n4cnnn4)CCOCC2)CC3)C1` [compound 226], the inhibition at 1.25 µM came out at 68.7%.
With `N#CN1CC[C@@H](C(=O)Nc2nc3c(s2)CN(C(=O)c2sc(N4CCCC4)nc2Cl)CC3)C1` [compound 227], the inhibition at 1.25 µM came to 74%.
The result for `COc1ccc(CN2CCC2C(=O)N2CCc3nc(NC(=O)[C@@H]4CCN(C#N)C4)sc3C2)cc1` (some centres unmarked) [compound 228] reads 62.2%; that for `COCC1CCN(c2ccc(C(=O)N3CCc4nc(NC(=O)[C@@H]5CCN(C#N)C5)sc4C3)cc2)C1` (some centres unmarked) [compound 229], 72.8%.
For the compound `Cc1nn(-c2cccnc2)nc1C(=O)N1CCc2nc(NC(=O)[C@@H]3CCN(C#N)C3)sc2C1` [compound 230], the inhibition at 1.25 µM stood at 62.8%.
For `Cc1nn(-c2ccccn2)c(C)c1CC(=O)N1CCc2nc(NC(=O)[C@@H]3CCN(C#N)C3)sc2C1` [compound 231] the value was 67.1%; for `N#CN1CC[C@@H](C(=O)Nc2nc3c(s2)CN(C(=O)c2ccnn2C2CCC2)CC3)C1` [compound 232], 76%; for `N#CN1CC[C@@H](C(=O)Nc2nc3c(s2)CN(C(=O)CC2(Cn4cnnn4)CCCCC2)CC3)C1` [compound 233], 77.5%.
Turning to `N#CN1CC[C@@H](C(=O)Nc2nc3c(s2)CN(C(=O)c2cn(CC4CCOC4)nn2)CC3)C1` (some centres unmarked) [compound 234], the inhibition at 1.25 µM worked out at 82.7%.
As for `N#CN1CC[C@@H](C(=O)Nc2nc3c(s2)CN(C(=O)c2ccn(-c4ccc(C(F)(F)F)cn4)n2)CC3)C1` [compound 235], the inhibition at 1.25 µM turned out to be 67.4%.
The result for `N#CN1CC[C@@H](C(=O)Nc2nc3c(s2)CN(C(=O)c2sccc2S(=O)(=O)NCc2ccco2)CC3)C1` [compound 236] reads 58.7%.
For `N#CN1CC[C@@H](C(=O)Nc2nc3c(s2)CN(C(=O)c2cnn(Cn4cc(Cl)cn4)c2)CC3)C1` [compound 237] the value was 80%; for `N#CN1CC[C@@H](C(=O)Nc2nc3c(s2)CN(C(=O)c2nc(OCC4CC4)ccc2Cl)CC3)C1` [compound 238], 53.7%.
For `CC(C(=O)N1CCc2nc(NC(=O)[C@@H]3CCN(C#N)C3)sc2C1)n1ccc(C2CC2)n1` (some centres unmarked) [compound 239] the value was 67.1%; for `Cn1cc(S(=O)(=O)N2CCOCC2)cc1C(=O)N1CCc2nc(NC(=O)[C@@H]3CCN(C#N)C3)sc2C1` [compound 240], 75.1%; for `Cn1nc(CC(=O)N2CCc3nc(NC(=O)[C@@H]4CCN(C#N)C4)sc3C2)cc1C1CC1` [compound 241], 86.1%.
Turning to `Cc1sc(-n2cnnn2)c(C(=O)N2CCc3nc(NC(=O)[C@@H]4CCN(C#N)C4)sc3C2)c1C` [compound 243], the inhibition at 1.25 µM is 61.9%.
Turning to `Cc1noc(-c2ccc(C(=O)N3CCc4nc(NC(=O)[C@@H]5CCN(C#N)C5)sc4C3)cc2)n1` [compound 244], the inhibition at 1.25 µM stood at 58.5%.
